Test results taken from PMC4146677 (Bioorganic & medicinal chemistry letters, 2014).
In brackets after ≈: the same amount, converted by molar mass. Several values for one entry are separate records, joined by “and”; a condition that tells them apart may be missing. Equal entries are not always repeated. Entries after “also recorded” stand apart in the source; their conditions may differ. Where two headings read alike, the source gives them in different places. Marks after values point to notes of the source that are not given here.

Legend:
zebrafish larvae liver = test: Hepatotoxicity in zebrafish larvae; format: in vivo, zebrafish (Danio rerio); conditions: 6 dpf; for Hepatotoxic effects / liver phenotype at the MTC: 2-HDA 0.8 μM, 2-ODA 1 μM, 2-TDA 1.2 μM
PfFabI [1] = target: T1, PfFabI (Plasmodium falciparum, UniProt Q9BH77); conditions: values marked **, ref [3] (table footnote), [5], cited from earlier work
T1 sequence (Q9BH77 22-432): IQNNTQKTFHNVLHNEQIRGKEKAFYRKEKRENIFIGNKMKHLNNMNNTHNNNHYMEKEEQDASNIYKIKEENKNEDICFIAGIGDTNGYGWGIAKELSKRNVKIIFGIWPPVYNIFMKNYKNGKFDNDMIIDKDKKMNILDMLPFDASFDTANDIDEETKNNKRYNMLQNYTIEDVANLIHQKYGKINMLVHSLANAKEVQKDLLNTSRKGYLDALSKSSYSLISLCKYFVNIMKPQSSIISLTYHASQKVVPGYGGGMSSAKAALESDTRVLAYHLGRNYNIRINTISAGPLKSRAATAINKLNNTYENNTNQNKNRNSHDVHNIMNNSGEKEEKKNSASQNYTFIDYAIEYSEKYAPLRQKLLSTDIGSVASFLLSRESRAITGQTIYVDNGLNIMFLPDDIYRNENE

PfFabZ [2] = target: T2, PfFabZ (Plasmodium falciparum, UniProt Q965D7); conditions: values marked **, ref [3] (table footnote), [5], cited from earlier work
T2 sequence (Q965D7 19-230): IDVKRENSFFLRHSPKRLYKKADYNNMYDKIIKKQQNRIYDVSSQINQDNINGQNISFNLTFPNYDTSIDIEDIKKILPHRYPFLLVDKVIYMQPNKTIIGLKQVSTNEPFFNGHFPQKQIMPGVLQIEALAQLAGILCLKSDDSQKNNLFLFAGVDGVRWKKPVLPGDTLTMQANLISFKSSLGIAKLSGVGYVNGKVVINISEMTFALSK

PfFabG [3] = target: T3, PfFabG (Plasmodium falciparum, UniProt Q8I2S7); conditions: values marked **; ref [3] (table footnote), [5]; cited from earlier work
BS P. falciparum K1 [4] = conditions: K1 strain; values marked **; ref [3] (table footnote), [5]; cited from earlier work
Leishmania donovani = conditions: read-out: EC50 against Leishmania donovani; ref [4]; cited from earlier work
[5] = target: Leishmania topoisomerase IB enzyme; conditions: read-out: EC50 Leishmania topoisomerase IB; ref [4]; cited from earlier work
[6] = ref [6]; cited from earlier work
[7] = test system: LS forms of Plasmodium yoelii; conditions: ref [5], cited from earlier work
L6 cells = conditions: cited from earlier work
zebrafish larvae = test: General toxicity in zebrafish larvae; conditions: treated 3 to 6 dpf, MTC at 6 dpf
LS P. berghei = test: Liver stage P. berghei infection of Huh7 hepatoma cells; format: cell-based, Plasmodium berghei; conditions: for Effect on P. berghei infection of Huh7 cells: 48 h treatment, Fig. 1
PfFabI [8] = target: T1, PfFabI; test: PfFabI enzyme inhibition assay; format: biochemical, P. falciparum
PfFabZ [9] = target: T2, PfFabZ; test: PfFabZ enzyme inhibition assay; format: biochemical, P. falciparum
PfFabG [10] = target: T3, PfFabG; test: PfFabG enzyme inhibition assay; format: biochemical, P. falciparum
[11] = target: PfFAS-II enzymes PfFabI, PfFabZ, PfFabG; test: PfFAS-II enzyme inhibition, range over PfFabI, PfFabZ and PfFabG; format: biochemical, P. falciparum; conditions: range over the three enzymes
Huh7 cells = test: Host cell viability of Huh7 cells; format: cell-based, human; conditions: Alamar Blue; up to the highest test concentrations
BS P. falciparum K1 [12] = test: Blood stage antiplasmodial activity, 3H-hypoxanthine method; format: cell-based; conditions: Plasmodium falciparum, K1, read-out: IC50 BS P. falciparum
[13] = rat skeletal myoblasts, values marked *, ref [2]

Molecule: 2-hexadecynoic acid [2-HDA]
- Hepatotoxic effects / liver phenotype at the MTC (zebrafish larvae liver; 3 days of exposure): non-hepatotoxic; also recorded: normal liver
- IC50 PfFabI (PfFabI [1]): 0.38** μg/ml
- IC50 PfFabZ (PfFabZ [2]): 0.58** μg/ml
- IC50 PfFabG (PfFabG [3]): 3.5** μg/ml
- IC50 BS P. falciparum (BS P. falciparum K1 [4]): 10.4** μg/ml
- EC50 (Leishmania donovani): 17.8 µM
- EC50 [5]: 28 µM
- Critical micelle concentration (CMC) [6]: > 90 µg/mL
- IC50 LS P. yoelii ([7]; assessed by flow cytometry): 15.3 µg/mL
- IC50 LS P. yoelii ([7]; assessed by immunofluorescence activity): 4.88 µg/mL
- IC50 L6 cell toxicity (L6 cells): 85.9** μg/ml
- Maximum-tolerated concentration (MTC) (zebrafish larvae): 0.20 μg/ml and 0.8 μM

Molecule: CCCCCCCCCCCCCCCC#CC(=O)O [2-ODA, 2-octadecynoic acid]
- Effect on P. berghei infection of Huh7 cells (LS P. berghei): greatly impaired infection
- IC50 PfFabI (PfFabI [8]): 0.30 µg/mL (≈ 1.07 µM)
- IC50 PfFabZ (PfFabZ [9]): 0.28 µg/mL (≈ 0.998 µM)
- IC50 PfFabG (PfFabG [10]): 0.80 µg/mL (≈ 2.85 µM)
- IC50 values against PfFabI, PfFabZ and PfFabG (range) [11]: 0.28 to 0.80 µg/mL
- Effect on cell viability of Huh7 host cells (Huh7 cells): no apparent effects on cell viability
- Hepatotoxic effects / liver phenotype at the MTC (zebrafish larvae liver; 3 days of exposure): non-hepatotoxic; also recorded: normal liver
- EC50 (Leishmania donovani): 11 µM
- EC50 [5]: 5 µM
- Critical micelle concentration (CMC) [6]: 50 µg/mL
- IC50 L6 cell toxicity (L6 cells; [13]): 5.6* μg/ml

Molecule: CCCCCCCCCCCC#CC(=O)O [2-TDA, 2-tetradecynoic acid]
- Effect on P. berghei infection of Huh7 cells (LS P. berghei): greatly impaired infection
- IC50 PfFabZ (PfFabZ [9]): 3.5 µg/mL (≈ 15.6 µM)
- IC50 PfFabG (PfFabG [10]): 5.5 µg/mL (≈ 24.5 µM)
- IC50 (BS P. falciparum K1 [12]): 27.3 µg/mL (≈ 122 µM)
- Effect on cell viability of Huh7 host cells (Huh7 cells): no apparent effects on cell viability
- Hepatotoxic effects / liver phenotype at the MTC (zebrafish larvae liver; 3 days of exposure): induced liver toxicity; also recorded: round-shaped liver with reduced fluorescence
- Hepatotoxic effects / liver phenotype (zebrafish larvae liver; 1.0 μM = 0.22 μg/ml, below the MTC): did not induce any apparent signs of liver toxicity
- EC50 [5]: 68 µM
- IC50 L6 cell toxicity (L6 cells; [13]): 9.2* μg/ml
- Maximum-tolerated concentration (MTC) (zebrafish larvae): 0.27 µg/mL

Molecule: CCN(CC)CCCC(C)Nc1ccnc2cc(Cl)ccc12 (stereo not drawn) [Chloroquine, reference compound]
- IC50 (BS P. falciparum K1 [12]): 0.117 µg/mL (≈ 0.366 µM)

Molecule: CCCCCCCCCCCCCCCC(=O)O [PA, palmitic acid, reference compound]
- LS activity at the highest test concentration (LS P. berghei; 25 μg/ml): devoid of any LS activity
- Hepatotoxic effects / liver phenotype (zebrafish larvae liver; 3 days of exposure, 700 μM = 179.2 μg/ml): no hepatotoxic effects; also recorded: normal liver
- IC50 (PfFabI [1]; read-out: IC50 PfFabI): > 390 µM
- IC50 (PfFabZ [2]; read-out: IC50 PfFabZ): > 390 µM
- IC50 BS P. falciparum (BS P. falciparum K1 [4]): 3.8** μg/ml
- IC50 L6 cell toxicity (L6 cells): 52.7** μg/ml

Molecule: COc1cc([C@@H]2c3cc4c(cc3[C@H](O)[C@H]3COC(=O)[C@H]23)OCO4)cc(OC)c1OC [Podophyllotoxin, reference compound]
- IC50 L6 cell toxicity (L6 cells; [13]): 0.02^e,* μg/ml

Molecule: CC(=O)Nc1ccc(O)cc1 [paracetamol, reference compound]
- Hepatotoxic effects / liver phenotype (zebrafish larvae liver; 3 days of exposure, 300 μM, positive control): smaller-sized liver
